Data published in ChEMBL document CHEMBL3352628, “Stereochemical modification of geminal dialkyl substituents on pantothenamides alters antimicrobial activity” (Bioorg Med Chem Lett, 2014).
Values after ≈ are worked out from the molar mass of the structure shown. Active and inactive are the calls of the source. No cut-off for these calls is given here.

Experiments:
[1] = system: Plasmodium falciparum; experiment: Antimicrobial activity against chloroquine-sensitive Plasmodium falciparum 3D7 ring stage parasite assessed as reduction in parasite proliferation after 96 hrs in presence of 1 uM pantothenate by SYBR Safe DNA gel staining based assay; format: functional, organism-based; settings: 3D7, 96 h
[2] = system: HFF; experiment: Cytotoxicity against HFF cells at 1 to 100 uM after 48 hrs by SYBR Safe DNA gel staining based assay; format: cell-based; settings: human
[3] = system: Staphylococcus aureus; experiment: Antimicrobial activity against oxacillin-susceptible Staphylococcus aureus ATCC 29213 after 18 hrs by microdilution broth method; format: functional; settings: ATCC 29213, 18 h
[4] = system: Staphylococcus aureus; experiment: Antimicrobial activity against oxacillin-resistant Staphylococcus aureus 43300 at 500 uM after 18 hrs by microdilution broth method; format: functional, organism-based
[5] = system: Plasmodium falciparum; experiment: Antimicrobial activity against chloroquine-sensitive Plasmodium falciparum 3D7 ring stage parasite assessed as reduction in parasite proliferation after 96 hrs in presence of 50 uM pantothenate by SYBR Safe DNA gel staining based assay; format: functional, organism-based; settings: 3D7, 96 h
[6] = system: Staphylococcus aureus; experiment: Antimicrobial activity against oxacillin-resistant Staphylococcus aureus 43300 after 18 hrs by microdilution broth method; format: functional; settings: Staphylococcus aureus, 43300, 18 h
[7] = system: Staphylococcus aureus; experiment: Antimicrobial activity against oxacillin-susceptible Staphylococcus aureus ATCC 29213 at 500 uM after 18 hrs by microdilution broth method; format: functional, organism-based

Compound	IC50 [1] [µM]	Activity [2]	MIC [3] [µM]	Activity [4]	IC50 [5] [µM]	MIC [6] [µM]	Activity [7]
C=CC[C@](C)(CO)[C@@H](O)C(=O)NCCC(=O)NCCCCC	31	Non-toxic					
C=CC[C@@](C)(CO)[C@@H](O)C(=O)NCCC(=O)NCCCCC	2.4	Non-toxic	3.2 (≈ 1.01 µg/mL)	inactive	13	3.2 (≈ 1.01 µg/mL)	inactive
